The source made the active and inactive calls. The calls are words filed in the database; no cut-off is given here.
Experiments:
Staphylococcus aureus [1] = assay: Antibacterial activity against Staphylococcus aureus Sau 16339 at 0.005 to 1 mg/ml by agar diffusion assay; type: functional, organism-based; details: dose 0.005-1 mg/ml
Micrococcus luteus [2] = assay: Antibacterial activity against Micrococcus luteus at 0.005 to 1 mg/ml by agar diffusion assay; type: functional, organism-based; details: dose 0.005-1 mg/ml
Staphylococcus aureus [3] = assay: Antibacterial activity against Staphylococcus aureus Sau 16339 assessed as inhibition zone at 0.5 mg/ml by agar diffusion assay; type: functional; details: read-out: IZ
Micrococcus luteus [4] = assay: Antibacterial activity against Micrococcus luteus assessed as inhibition zone at 0.5 mg/ml by agar diffusion assay; type: functional; details: read-out: IZ

Row | Compound | Activity (Staphylococcus aureus [1]) | Activity (Micrococcus luteus [2]) | zone of inhibition at 500 µg/mL (Staphylococcus aureus [3]) | zone of inhibition at 500 µg/mL (Micrococcus luteus [4])
1 | CC(/C=C/C(=O)N[C@@H]1O[C@H](CO)[C@@H](O)[C@H](O[C@@H]2O[C@H](CO)[C@@H](O)[C@H](O[C@@H]3O[C@H](CO[C@@H]4O[C@H](CO)[C@@H](O)[C@H](O)[C@H]4O)[C@@H](O)[C@H](O)[C@H]3O)[C@H]2O)[C@H]1O)=C\C=C\c1ccccc1 | inactive | inactive | – | –
2 | COC(=O)/C=C/C=C/C=C/C(C)=C/C=C/c1ccccc1 | inactive | inactive | – | –
3 | CC(/C=C/C=C(C)/C=C/C(=O)N[C@@H]1O[C@H](CO)[C@@H](O)[C@H](O[C@@H]2O[C@H](CO)[C@@H](O)[C@H](O[C@@H]3O[C@H](CO[C@@H]4O[C@H](CO)[C@@H](O)[C@H](O)[C@H]4O)[C@@H](O)[C@H](O)[C@H]3O)[C@H]2O)[C@H]1O)=C\C=C\c1ccccc1 | – | inactive | 4 mm | –
4 | COC(=O)/C=C/C(C)=C/C=C/C(C)=C/C=C/c1ccccc1 | inactive | inactive | – | –
5 | CN(C)[C@@H]1C(O)=C(C(N)=O)C(=O)[C@@]2(O)C(O)=C3C(=O)c4c(O)cccc4[C@@](C)(O)[C@H]3C[C@@H]12 [TETRACYCLINE] | – | – | 12 mm | 15 mm
6 | CC(/C=C/C=C/C=C/C(=O)N[C@@H]1O[C@H](CO)[C@@H](O)[C@H](O[C@@H]2O[C@H](CO)[C@@H](O)[C@H](O[C@@H]3O[C@H](CO[C@@H]4O[C@H](CO)[C@@H](O)[C@H](O)[C@H]4O)[C@@H](O)[C@H](O)[C@H]3O)[C@H]2O)[C@H]1O)=C\C=C\c1ccccc1 | inactive | – | – | 3 mm

Reference: ChEMBL document CHEMBL6071166, “Maduraflavacins A-E, Unusual Phenyl Polyene Metabolites Produced by a Rare Marine-Derived Actinomadura sp” (2024)
